How the values were obtained:
[1] = system: Erysiphe graminis f.sp. hordei; assay: Example A: Erysiphe test (barley)/protective (N-methyl-pyrrolidone); type: in vivo; details: protective, 250 g/ha, 7 days after inoculation, vs untreated control
Experimental: (§1) Erysiphe test (barley)/protective Solvent: 10 parts by weight of N-methyl-pyrrolidone Emulsifier: 0.6 parts by weight of alkylaryl polyglycol ether To produce a suitable preparation of active compound, 1 part by weight of active compound is mixed with the stated amount of solvent and emulsifier, and the concentrate is diluted with water to the desired concentration. To test for protective activity, young plants are sprayed with the preparation of active compound at the stated application rate. After the spray coating has dried on, the plants are dusted with spores of Erysiphe graminis f.sp. hordei. The plants are placed in a greenhouse at a temperature of approximately 20° C. and a relative atmospheric humidity of approximately 80% to promote the development of mildew postules.

[2] = system: Plasmopara viticola; assay: Example D: Plasmopara test (grapevine)/protective; type: in vivo; details: Plasmopara viticola, 144 h, protective, 6 days after inoculation, vs untreated control, read-out: Efficacy in %
Experimental: Plasmopara test (grapevine)/protective Solvent: 47 parts by weight of acetone Emulsifier: 3 parts by weight of alkylaryl polyglycol ether To produce a suitable preparation of active compound, 1 part by weight of active compound is mixed with the stated amount of solvent and emulsifier, and the concentrate is diluted with water to the desired concentration. To test for protective activity, young plants are sprayed with the preparation of active compound at the stated application rate. […]

[3] = system: Pyricularia oryzae; type: in vivo; details: rice, protective; 750 g/ha; 4 days after inoculation; vs untreated control
[4] = HPLC logP; type: physicochemical; details: Table 1
[5] = system: Erysiphe graminis f.sp. hordei; assay: Example B: Erysiphe test (barley)/curative; type: in vivo; details: curative (sprayed 48 hours after inoculation), 250 g/ha, 7 days after inoculation, vs untreated control
Experimental: as §1, with “test (barley)/curative” for “test (barley)/protective”, “0.6 part” for “0.6 parts”, “for curative” for “for protective”, “young plants are dusted with spores of Erysiphe graminis f.sp. hordei. 48 hours after the inoculation, the” for “young”, “rate.” for “rate. After the spray coating has dried on, the plants are dusted with spores of Erysiphe graminis f.sp. hordei.”, “mildew postures.” for “mildew postules.”

[6] = system: Erysiphe graminis f.sp. hordei; assay: Example C: Erysiphe test (barley)/protective (N,N-dimethylacetamide); type: in vivo; details: protective, solvent N,N-dimethylacetamide, 250 g/ha, 7 days after inoculation, vs untreated control
Experimental: as §1, with “Solvent: 25” for “Solvent: 10”, “of N,N-dimethylacetamide” for “of N-methyl-pyrrolidone”, “0.6 part” for “0.6 parts”

SMILES | Efficacy in % [1] | pest or weed control at 100 g/ha [2] | Efficacy in % [3] | chromatographic logP [4] | Efficacy in % [5] | Efficacy in % [6]
CON=C(C1=NOCCO1)c1ccccc1Oc1nccc(OCC(F)(F)F)n1 [Example 3] | 100% | ≤ 100% | at least 70% | 2.6 | 100% | 
CCCCCCOc1ccnc(Oc2ccccc2C(=NOC)C2=NOCCO2)n1 [Example 13] |  | ≤ 100% |  | 3.8 |  | 100%
